Measurements published in patent publication US8362070B2, “Application of puerarin in the preparation of P2X3 mediated drugs for pain/nervous system diseases” (Nanchang University, priority 2009, dated 2013).

Key:
Format in all cases: in vivo, rat
[1] = tested on: rats that suffer from superficial second degree foot burn; assay: Mechanical hyperalgesia (mechanical withdrawal threshold) in rats with foot burn; conditions: for mechanical withdrawal threshold (MWT) in comparison to group III (burn) / mechanical withdrawal threshold (MWT) after 72 hours or 96 hours: superficial second degree foot burn + drug; for mechanical withdrawal threshold (MWT) in comparison to group III (burn): p<0.01; for mechanical withdrawal threshold (MWT) after 72 hours or 96 hours: vs groups I, II, V p>0.05
Text: Male SD rats, 220-250 g, 60 rats were included, which were provided by the Department of Experimental Animals from the Medical College of Nanchang University, and the animals were divided into different groups at random. Group I was the group of sham burn in skin of feet; group II was the group of puerarin injection+first degree or superficial second degree burn in skin of feet; group III was the group of physiological saline+first degree or superficial second degree burn in skin of feet; group IV was the group of sham burn in skin of back; group V was the group of puerarin injection+first degree or superficial second degree burn in skin of back; group VI was the group of physiological saline+first degree or superficial second degree burn in skin of back. Puerarin injection was dissolved in physiological saline and the concentration was 50 mg/mL. vena caudalis injection of 4 mL/kg physiological saline was carried out for the rats in group III and […] 0.5 h before burn, and the injection was carried out once a day until the termination of the test; […], and the injection was carried out once a day until the termination of the test; skin of feet or back of the rats from group I and group IV (the sham burn group) were immersed in warm water of 37° C. for 8 seconds. After the rats were anesthetized by ether, their right posterior feet were immersed in hot water of 70° C. for 5 seconds or 8 seconds, then they were raised in separate cages after burn. The mechanical withdrawal threshold and the thermal withdrawal threshold in their right posterior feet were measured respectively before burn (Oh) and 1, 24, 48, 72, 96, 120, 144 hours after burn (the room temperature was maintained at 22±0.5° C.). BME-403 Von Frey fine thread was used to detect the mechanical withdrawal threshold (MWT). The rats were kept in transparent organic glass box (22×12×22 cm^3), and the bottom of the organic glass box was made of wire netting of 1×1 cm^2. The rats were raised in the laboratory after operations and they were kept in the organic glass box for accommodation for 15 min before the detection. The bending forces were 0.13, 0.20, 0.33, 0.60, 1.30, 3.60, 5.00, 7.30, 9.90, 20.1 g respectively. Each test was performed for ten times from the smallest bending force until the frequency of withdrawal was higher than 5/10, namely 50% reaction threshold (that was the value for inducing five reactions in ten tests). The biggest bending force was 20.1 g and bending forces≧20.1 g were recorded as 20.1 g. The interval between two stimulations was at least more than 15 seconds until the stimulation-induced reactions (such as licking feet and throwing legs) completely disappeared. BME-403 Von Frey fine thread was used to determine the mechanical withdrawal threshold (MWT). The rats were kept in transparent organic glass box (22×12×22 cm^3), and the bottom of the organic glass box was made of wire netting of 1×1 cm^2. The rats were raised in the laboratory after operations and they were kept in the organic glass box for accommodation for 15 minutes before the detection. The bending forces were 0.13, 0.20, 0.33, 0.60, 1.30, 3.60, 5.00, 7.30, 9.90, 20.1 g respectively, and bending forces≧20.1 g were recorded as 20.1 g. […]

P2X3 receptor = assay: Immunohistochemistry of P2X3 receptor expression in skin nerve ending of rats with back burn; conditions: superficial second degree back burn + puerarin injection i.v. daily for three days; saline+burn 152.63±22.62, sham 118.76±18.48
[2] = tested on: rats that suffer from neuropathic pain (chronic constriction injury of sciatic nerve); assay: Mechanical hyperalgesia (mechanical withdrawal threshold, Von Frey) in rats with neuropathic pain (CCI)
Method: Male SD rats, 220-250 g were provided by the Department of Experimental Animals from the Medical College of Nanchang University. The rats were divided into five groups at random and 12 rats were included in each group. Experimental grouping: I (sham); II (puerarin); III (chronic constriction injuries, CCI); IV (CCI+puerarin); V (control); VI (CCI+Indo). The puerarin injection was dissolved in physiological saline and the concentration was 50 mg/mL. […]
Thiopental sodium was used to anesthetize the rats (30 mg/kg, intraperitoneal injection), and the skin in the outer side of right thighs of the rats was cut open under sterile conditions, and blunt dissection was carried out to isolate the sciatic nerves, then the sciatic nerves were slightly ligated with 4-0 chromicized catgut and four ligations were carried out in total, and an interval of about 1 mm was left between two knots. […] The rats were raised in separate cages after the operation, and mechanical withdrawal threshold and thermal withdrawal latency were determined before the operation (0 d) and 1, 3, 5, 7, 9, 11, 14 days after the operations respectively (Time for the determination is set at 10[…]00-14[…]100 everyday, and the room temperature was maintained at 22±0.5° C.). […]

Structure (SMILES)	mechanical withdrawal threshold (MWT) in comparison to group III (burn) [1]	mechanical withdrawal threshold (MWT) after 72 hours or 96 hours [1]	gray scale values (average optical density) of P2X3 immunologically positive nerve ending in the skin (P2X3 receptor)	mechanical withdrawal threshold (MWT) in comparison with group III (CCI) ([2]; CCI rats + puerarin, seven days after ligation, p<0.01)	mechanical withdrawal threshold, difference among sham, puerarin alone and control ([2]; puerarin alone, no CCI, p>0.05)	mechanical withdrawal threshold, comparison among sham, puerarin alone and control ([1]; puerarin alone i.p., no burn, p>0.05)
COc1ccc2c(c1)c(CC(=O)O)c(C)n2C(=O)c1ccc(Cl)cc1 [Indocin, Indometacin]	significantly decreased	almost recovered to normal level	–	–	–	–
O=c1c(-c2ccc(O)cc2)coc2c([C@@H]3O[C@H](CO)[C@@H](O)[C@H](O)[C@H]3O)c(O)ccc12 [puerarin]	significantly decreased	almost recovered to normal level	130.42±13.35	significantly increased	not significant	no significant difference
